Broadly, the MIC is the lowest concentration found to suppress growth. In general, CC50 refers to the concentration at which the toxic effect on the cells reaches its halfway point. As a reminder, the Tmax is the time from dosing to the highest level. Usually AUC(0-inf) stands for total exposure, with the tail of the curve extrapolated. One may read the Cmax as the peak of the concentration-time curve.

In series [1] the test system is Mycobacterium tuberculosis. The experiment in a line: Antimycobacterial activity against Mycobacterium tuberculosis H37Rv after 3 days by rapid direct susceptibility test. In kind it is functional. The note with it: 72 h.
A short description of series [2]: Cytotoxicity against African green monkey Vero cells assessed as reduction in cell viability after 72 hrs by MTT assay. The format is cell-based. The note with it: chlorocebus sabaeus.
A short description of series [3]: Selectivity index, ratio of CC50 against African green monkey Vero cells to MIC for Mycobacterium tuberculosis H37Rv. In kind it is toxicity. Conditions: read-out: Selectivity Index.
Series [4] relates to Mycobacterium tuberculosis. The experiment in a line: Potency index, ratio of rifampicin MIC to compound MIC for antimycobacterial activity against Mycobacterium tuberculosis H37Rv. The format is functional.
Series [5] concerns Mycobacterium tuberculosis. The experiment in a line: Potency index, ratio of moxifloxacin MIC to compound MIC for antimycobacterial activity against Mycobacterium tuberculosis H37Rv. The format is functional.
Series [6] is described as follows: Tmax in ICR mouse at 50 mg/kg, po by HPLC analysis. The note with it: in vivo. The format is ADME, organism-based.
The nature of series [7]: AUC (0 to infinity) in ICR mouse at 50 mg/kg, po by HPLC analysis. Conditions: in vivo. In kind it is ADME, organism-based. The arrangement: dose 50 mg/kg, time infinity, route oral.
A short description of series [8]: Elimination half life in ICR mouse at 50 mg/kg, po by HPLC analysis. In kind it is ADME, organism-based. The note with it: in vivo, read-out: beta t1/2 (converted).
Series [9] in a line: Half life in mouse microsomes. The format is ADME, Microsome.
A short description of series [10]: Cmax in ICR mouse at 50 mg/kg, po by HPLC analysis. The format is ADME, organism-based. The arrangement: dose 50 mg/kg, route oral. Conditions: in vivo.

≈ marks a conversion by molar mass, not a printed value.

The compound `CCO/N=C1/C(=O)N(CCCn2cc(CN3CCC[C@@H]4CN(c5c(F)cc6c(=O)c(C(=O)O)cn(C7CC7)c6c5OC)C[C@@H]43)nn2)c2ccc(C)cc21` had an MIC in series [1] of 0.39 µg/mL (≈ 0.537 µM). The CC50 at 72 h in series [2] was 4 µg/mL (≈ 5.5 µM). Also, in series [3], the selectivity ratio was found to be 10.2.

Take `CCO/N=C1/C(=O)N(CCCn2cc(CN3CCC[C@@H]4CN(c5c(F)cc6c(=O)c(C(=O)O)cn(C7CC7)c6c5OC)C[C@@H]43)nn2)c2ccc(F)cc21`: 0.2 µg/mL (≈ 0.274 µM) was the least that counted as inhibitory in series [1] (MIC). Also, the CC50 at 72 h in series [2] came out at 4 µg/mL (≈ 5.47 µM). The selectivity ratio in series [3] was determined as 20.

Turning to `COc1c(N2C[C@H]3CCCN(Cc4cn(CCCN5C(=O)C(=O)c6cc(C)ccc65)nn4)[C@H]3C2)c(F)cc2c(=O)c(C(=O)O)cn(C3CC3)c12`, in series [1], the MIC came out at 0.39 µg/mL (≈ 0.57 µM). In addition, the CC50 at 72 h in series [2] was found to be 32 µg/mL (≈ 46.8 µM). For the same compound, the selectivity ratio in series [3] is 82.

In [1], `CO/N=C1/C(=O)N(CCCn2cc(CN3CCC[C@@H]4CN(c5c(F)cc6c(=O)c(C(=O)O)cn(C7CC7)c6c5OC)C[C@@H]43)nn2)c2ccc(C)cc21` gave a minimal inhibitory concentration (MIC) of 0.39 µg/mL (≈ 0.547 µM). For the same compound, the 50% cytotoxic concentration (CC50) at 72 h in series [2] came out at 8 µg/mL (≈ 11.2 µM). Moreover, the selectivity ratio in [3] was 20.5.

`COc1c(N2C[C@H]3CCCN(Cc4cn(CCCN5C(=O)C(=O)c6cc(F)ccc65)nn4)[C@H]3C2)c(F)cc2c(=O)c(C(=O)O)cn(C3CC3)c12` came in with a minimal inhibitory concentration (MIC) in series [1] of 0.78 µg/mL (≈ 1.13 µM). Further, the CC50 at 72 h in series [2] is 16 µg/mL (≈ 23.3 µM). Besides, the selectivity ratio in series [3] was determined as 20.5.

`COc1c(N2C[C@H]3CCCN(Cc4cn(CCCN5C(=O)/C(=N/O)c6cc(C)ccc65)nn4)[C@H]3C2)c(F)cc2c(=O)c(C(=O)O)cn(C3CC3)c12` gave a minimum inhibitory concentration (MIC) in series [1] of 1.56 µg/mL (≈ 2.23 µM). Besides, the CC50 at 72 h in series [2] was 8 µg/mL (≈ 11.4 µM). Also, the selectivity ratio in [3] turned out to be 5.1.

Consider `CO/N=C1/C(=O)N(CCCn2cc(CN3CCC[C@@H]4CN(c5c(F)cc6c(=O)c(C(=O)O)cn(C7CC7)c6c5OC)C[C@@H]43)nn2)c2ccc(F)cc21`, for which the Ratio in series [4] and in [5] was 2 - 8 in each case. Also, the time of peak concentration (Tmax) in [6] was determined as 1.33 h. This compound had a total exposure AUC(0-inf) in series [7] of 1240 ng·h/mL. Further, the half-life in series [8] was 3.87 h; in series [9], 0.228 h. The compound also gave a maximum concentration (Cmax) in [10] of 243 ng/mL. Inhibition of growth in series [1] (MIC) required 0.05 µg/mL (≈ 0.0698 µM). Further, the cytotoxic concentration (CC50) at 72 h in [2] was 4 µg/mL (≈ 5.58 µM). The selectivity ratio in series [3] is 80.

`CCO/N=C1/C(=O)N(CCCn2cc(CN3CCC[C@@H]4CN(c5c(F)cc6c(=O)c(C(=O)O)cn(C7CC7)c6c5OC)C[C@@H]43)nn2)c2ccccc21` registered an MIC in series [1] of 0.39 µg/mL (≈ 0.547 µM). The CC50 at 72 h in series [2] is 16 µg/mL (≈ 22.4 µM). For the same compound, the selectivity ratio in series [3] worked out at 41.

`COc1c(N2C[C@H]3CCCN(Cc4cn(CCCN5C(=O)/C(=N/O)c6cc(F)ccc65)nn4)[C@H]3C2)c(F)cc2c(=O)c(C(=O)O)cn(C3CC3)c12` showed an MIC in series [1] of 0.78 µg/mL (≈ 1.11 µM). The CC50 at 72 h in [2] worked out at 2 µg/mL (≈ 2.85 µM). For the same compound, in series [3], the selectivity ratio turned out to be 2.6.

In the case of `NNC(=O)c1ccncc1` [ISONIAZID], the MIC in [1] amounted to 0.05 µg/mL (≈ 0.365 µM). The CC50 at 72 h in series [2] is 128 µg/mL (≈ 933 µM). For the same compound, the selectivity ratio in series [3] worked out at 2560.

For `CO[C@H]1/C=C/O[C@@]2(C)Oc3c(C)c(O)c4c(O)c(c(/C=N/N5CCN(C)CC5)c(O)c4c3C2=O)NC(=O)/C(C)=C\C=C\[C@H](C)[C@H](O)[C@@H](C)[C@@H](O)[C@@H](C)[C@H](OC(C)=O)[C@@H]1C` [RIFAMPIN], the MIC in [1] worked out at 0.39 µg/mL (≈ 0.474 µM). For the same compound, the CC50 at 72 h in series [2] was 512 µg/mL (≈ 622 µM). In [3], the selectivity ratio was determined as 1310.

Regarding `COc1c(N2C[C@H]3CCCN(Cc4cn(CCCN5C(=O)C(=O)c6ccccc65)nn4)[C@H]3C2)c(F)cc2c(=O)c(C(=O)O)cn(C3CC3)c12`, the MIC in series [1] is 1.56 µg/mL (≈ 2.33 µM). Besides, the CC50 at 72 h in series [2] was determined as 16 µg/mL (≈ 23.9 µM). Besides, the selectivity ratio in series [3] came to 10.2.

`COc1c(N2C[C@H]3CCCN(Cc4cn(CCCN5C(=O)/C(=N/O)c6ccccc65)nn4)[C@H]3C2)c(F)cc2c(=O)c(C(=O)O)cn(C3CC3)c12` gave a minimal inhibitory concentration (MIC) in series [1] of 0.78 µg/mL (≈ 1.14 µM). Also, the 50% cytotoxic concentration (CC50) at 72 h in series [2] was determined as 8 µg/mL (≈ 11.7 µM). In addition, in [3], the selectivity ratio was found to be 10.2.

With `CO/N=C1/C(=O)N(CCCn2cc(CN3CCC[C@@H]4CN(c5c(F)cc6c(=O)c(C(=O)O)cn(C7CC7)c6c5OC)C[C@@H]43)nn2)c2ccccc21`, the minimal inhibitory concentration (MIC) in series [1] stood at 0.1 µg/mL (≈ 0.143 µM). The half-maximal cytotoxic concentration (CC50) at 72 h in [2] stood at 16 µg/mL (≈ 22.9 µM). In addition, the selectivity ratio in [3] came out at 160.

For `COc1c(N2C[C@@H]3CCCN[C@@H]3C2)c(F)cc2c(=O)c(C(=O)O)cn(C3CC3)c12` [MOXIFLOXACIN], the time to peak (Tmax) in series [6] stood at 1.08 h. In addition, in [7], the AUC(0-inf) stood at 7030 ng·h/mL. Also, the concentration in series [10] peaked (Cmax) at 2730 ng/mL. This compound yielded an MIC in series [1] of 0.1 µg/mL (≈ 0.249 µM). Also, the CC50 at 72 h in series [2] was 128 µg/mL (≈ 319 µM).

These data come from ChEMBL document CHEMBL4138241, “Synthesis and in vitro evaluation of novel substituted isatin-propylene-1H-1,2,3-triazole-4-methylene-moxifloxacin hybrids for their anti-mycobacterial activities” (Eur J Med Chem, 2018).
